Test results taken from patent US10494410B2, “Inhibitor Peptides of ERK-type MAP kinase” (Universite Pierre Et Marie Curie, priority 2005, dated 2019).
Ends that are not written are not given here.

What was measured:
[1] = tested on: HEK293 cells; test: Cell penetration and intracellular localization of FITC-coupled peptide in HEK293 cells (fluorescence, Hoechst nuclei); type: cell-based; conditions: unlabeled peptide, statement in Example 1; cells not specified
Experimental: HEK293 cells are placed in the presence of the peptide F2 at various concentrations (1 mM stock solution in distilled water, then dilutions to 25, 50 and 100 μM in DMEM culture medium), for 15, 30 or 60 minutes, continuously. The cell nuclei are labeled using Hoechst dye (left panel), and the peptide F2 is visualized by means of the FITC label (middle panel). […] The labeled cell nuclei are shown on the left panels, the peptide F2 on the middle panels and the superimposition of these two labelings is represented on the right panels (panels marked fusion).
HEK293 cells are placed in the presence of the peptide F1 at various concentrations (1 mM stock solution in distilled water, then dilutions to 25, 50 and 100 μM in
DMEM culture medium) for 15, 30 or 60 minutes, continuously. The cell nuclei are labeled using Hoechst dye, and the peptide F1 is visualized by means of the FITC label.

[2] = tested on: Elk-1; test: Serum-induced P-Elk-1 in HEK cells, immunocytochemistry; type: cell-based; conditions: peptide 10 μM for 40 minutes, serum 20 minutes
Experimental: HEK cells are placed in the presence of the peptide P2 (FIG. 4, middle panels) or P1 (FIG. 4, right panels), at the concentration of 10 μM for 40 minutes. Nontreated cells (without peptide) are used as controls (FIG. 4, left panels).
The cells are then treated for 20 minutes using fetal calf serum (serum) in order to activate the MAP kinase/ERK pathway.
The corresponding nuclei are visualized by means of the same star on the panels of the third line, marked Hoechst.

Row | Sequence | cell penetration [1] | induction of P-Elk-1 (phosphorylation of Elk-1) in response to serum [2]
1 | GRKKRRQRRRCCTLWQFLLHLLLDSPAKLSFQFPSGSAQVHI (sequence which inhibits the interaction between Elk 1 and ERK) [Peptide P1, HIV-TAT penetrating peptide, CC cleavage site, NES of Net, FXFP docking domain of Elk-1] | penetrates into the cells | not and also in the presence of serum and of the peptide P1
2 | GRKKRRQRRRPPSPAKLSFQFPSGSAQVHI [Peptide P2] | penetrates into the cells | 
